The values below come from article PMC5472064 (Organic & biomolecular chemistry, 2017).

Read-outs that look alike come from different tables or passages of the source.

This assay deals with p97 ATPase WT (Homo sapiens, UniProt P55072). Kind of assay: ADPGlo biochemical assay of p97 ATPase inhibition. The conditions noted are these: for effect of structural change on activity/potency (in words): p97 inhibition, versus indole NH / amide analogs. For orientation: ADP-Glo turns the ADP formed in a reaction into a luminescent signal.
p97 ATPase WT, sequence (P55072 whole entry): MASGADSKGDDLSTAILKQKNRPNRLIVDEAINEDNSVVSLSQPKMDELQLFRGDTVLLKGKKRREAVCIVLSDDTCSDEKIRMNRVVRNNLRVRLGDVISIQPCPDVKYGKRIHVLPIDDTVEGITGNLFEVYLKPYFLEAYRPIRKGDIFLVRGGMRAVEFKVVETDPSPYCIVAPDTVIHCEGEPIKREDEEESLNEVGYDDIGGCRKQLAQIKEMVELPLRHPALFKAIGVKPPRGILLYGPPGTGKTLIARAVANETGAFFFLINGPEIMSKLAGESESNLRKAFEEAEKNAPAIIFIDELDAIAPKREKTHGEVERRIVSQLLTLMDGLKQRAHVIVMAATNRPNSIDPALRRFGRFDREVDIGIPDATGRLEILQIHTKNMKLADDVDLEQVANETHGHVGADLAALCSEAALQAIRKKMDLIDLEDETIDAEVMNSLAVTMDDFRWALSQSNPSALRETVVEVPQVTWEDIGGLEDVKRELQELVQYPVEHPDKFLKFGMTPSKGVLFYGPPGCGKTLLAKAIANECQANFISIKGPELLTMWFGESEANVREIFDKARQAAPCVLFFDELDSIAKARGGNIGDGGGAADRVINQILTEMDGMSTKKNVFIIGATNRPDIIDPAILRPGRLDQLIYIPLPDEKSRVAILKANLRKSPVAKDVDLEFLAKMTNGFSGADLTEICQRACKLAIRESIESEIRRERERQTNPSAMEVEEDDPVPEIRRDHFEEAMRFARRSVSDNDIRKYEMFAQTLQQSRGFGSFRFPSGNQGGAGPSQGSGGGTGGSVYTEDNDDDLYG

The term IC50 denotes the concentration that gives 50% inhibition. As for `CC(C)N1CCN(CCNC2CCN(c3cccc(-c4cc5cc(F)ccc5[nH]4)c3)CC2)CC1` [UPCDC30245], under “read-out: ADPGlo IC50, 20 nM p97 ATPase WT, 100 μM ATP, repeated multiple times”, the half-inhibitory concentration (IC50) was 55 nM.
`Cc1ccc(N2CCC(NCCN3CCN(C(C)C)CC3)CC2)cc1-c1cc2cc(C#N)ccc2[nH]1` [UPCDC30361, 2-(5-(4-((2-(4-Isopropylpiperazin-1-yl)ethyl)amino)piperidin-1-yl)-2-methylphenyl)-1H-indole-5-carbonitrile] gave an IC50 of 87 nM.
For `CC(C)N1CCN(CCNC2CCN(c3cccc(-c4ccc5ccccc5c4)c3)CC2)CC1` [UPCDC30222, N-(2-(4-Isopropylpiperazin-1-yl)ethyl)-1-(3-(naphthalen-2-yl)phenyl)piperidin-4-amine], the IC50 worked out at 5200 nM and the “effect of structural change on activity/potency (in words)” value was “greatly diminishes”.
`CNC(=O)c1ccc2[nH]c(-c3cccc(N4CCC(NCCN5CCN(C(C)C)CC5)CC4)c3)cc2c1` [UPCDC30367, 2-(3-(4-((2-(4-Isopropylpiperazin-1-yl)ethyl)amino)piperidin-1-yl)phenyl)-N-methyl-1H-indole-5-carboxamide] gave an IC50 of 450 nM.
Still for that read-out and setting: under `Cc1ccc(N2CCC(NCCN3CCN(C(C)C)CC3)CC2)cc1-c1cc2cc(F)ccc2[nH]1` [UPCDC30346, 1-(3-(5-Fluoro-1H-indol-2-yl)-4-methylphenyl)-N-(2-(4-isopropylpiperazin-1-yl)ethyl)piperidin-4-amine] stands 50 nM.
The compound `CC(C)N1CCN(CCNC2CCN(c3cccc(-c4nc5ccccc5[nH]4)c3)CC2)CC1` [UPCDC30250, 1-(3-(1H-Benzo[d]imidazol-2-yl)phenyl)-N-(2-(4-isopropylpiperazin-1-yl)ethyl)piperidin-4-amine] displayed an IC50 of 38500 nM. Moreover, the “reduction of binding affinity” value (benzimidazole versus indole) is > 2 orders of magnitude.
As to `CC(C)N1CCN(CCNC2CCN(c3ccc4c(c3)-c3[nH]c5ccccc5c3CC4)CC2)CC1` [UPCDC30206, 1-(6,11-Dihydro-5H-benzo[a]carbazol-2-yl)-N-(2-(4-isopropylpiperazin-1-yl)ethyl)piperidin-4-amine], the IC50 amounted to 390 nM.
In the case of `CC(C)N1CCN(CCNC2CCN(c3cccc(-c4cc5ccccc5n4C)c3)CC2)CC1` [UPCDC30201, N-(2-(4-Isopropylpiperazin-1-yl)ethyl)-1-(3-(1-methyl-1H-indol-2-yl)phenyl)piperidin-4-amine], the IC50 is more than 50000 nM and the “effect of structural change on activity/potency (in words)” value is “ablates”.
`CC(C)N1CCN(CCNC2CCN(c3cccc(-c4cc5cnccc5[nH]4)c3)CC2)CC1` [UPCDC30345, 1-(3-(1H-Pyrrolo[3,2-c]pyridin-2-yl)phenyl)-N-(2-(4-isopropylpiperazin-1-yl)ethyl)piperidin-4-amine]: inhibition was half-maximal at 4000 nM (IC50).
Still for that read-out and setting: under `CC(C)N1CCN(CCNC2CCN(c3cccc(-c4cc5cc(C(N)=O)ccc5[nH]4)c3)CC2)CC1` [UPCDC30310, 2-(3-(4-((2-(4-Isopropylpiperazin-1-yl)ethyl)amino)piperidin-1-yl)phenyl)-1H-indole-5-carboxamide] stands 100 nM; under `CC(C)N1CCN(CCNC2CCN(c3cccc(-c4cc5cc(Cl)ccc5[nH]4)c3)CC2)CC1` [UPCDC30317, 1-(3-(5-Chloro-1H-indol-2-yl)phenyl)-N-(2-(4-isopropylpiperazin-1-yl)ethyl)piperidin-4-amine], 190 nM.
As for `CC(C)N1CCN(CCNC2CCN(c3cccc(-c4cc5cc(C(=O)N(C)C)ccc5[nH]4)c3)CC2)CC1` [UPCDC30368, 2-(3-(4-((2-(4-Isopropylpiperazin-1-yl)ethyl)amino)piperidin-1-yl)phenyl)-N,N-dimethyl-1H-indole-5-carboxamide], the “effect of structural change on activity/potency (in words)” value was “near loss of all potency”.
`CC(C)N1CCN(CCNC2CCN(c3cccc(-c4cc5cc(F)cnc5[nH]4)c3)CC2)CC1` [UPCDC30381, 1-(3-(5-Fluoro-1H-pyrrolo[2,3-b]pyridin-2-yl)phenyl)-N-(2-(4-isopropylpiperazin-1-yl)ethyl)piperidin-4-amine]: inhibition was half-maximal at 4740 nM (IC50).
Take `COC(=O)c1ccc2[nH]c(-c3cccc(N4CCC(NCCN5CCN(C(C)C)CC5)CC4)c3)cc2c1` [UPCDC30341, Methyl 2-(3-(4-((2-(4-isopropylpiperazin-1-yl)ethyl)amino)piperidin-1-yl)phenyl)-1H-indole-5-carboxylate]: inhibition was half-maximal at 130 nM (IC50).
